# In US9938510B2, “Photobacterium sp. alpha-2-6-sialyltransferase variants” (The Regents of the University of California, priority 2014, dated 2018):
# Read-outs that look alike come from different tables or passages of the source.
# Legend:
# [1] = biological target: Photobacterium sp. JH-ISH-224 α2-6-sialyltransferase Psp2,6ST(15-501)-His6, wild type, SEQ ID NO: 23 (Photobacterium sp. JT-ISH-224, UniProt A8QYL1); experiment: Donor hydrolysis kinetics (CMP-Neu5Ac hydrolysis), wild-type Psp2,6ST(15-501)-His6; assay type: biochemical; settings: apparent, 20° C., 10 min, Tris-HCl pH 8.0
# Method: Procedure for Kinetic Analysis of Donor Hydrolysis by His6-Pd2,6ST(16-497), Psp26ST(15-501)-His6 and its A235D and A366G Mutants
# The kinetics study for the donor hydrolysis activity of His6-Pd2,6ST(16-497) was carried out at 37° C. for 20 min in Tris-HCl buffer (200 mM, pH 8.0). The kinetics study for the donor hydrolysis activities of Psp26ST(15-501)-His6 and its A235D mutant was carried out at 20° C. for 10 min in Tris-HCl buffer (200 mM, pH 8.0). All reactions were performed in duplicate in a total volume of 10 μL containing varied concentrations of CMP-Neu5Ac (10, 20, 40, 60, 80 and 100 mM) and the enzyme (6 μM). Reactions were stopped by adding 10 μL of ethanol and then centrifuged. The supernatants were analyzed by a P/ACETM capillary electrophoresis (CE) system equipped with a photodiode array (PDA) detector (Beckman Coulter, Inc., Fullerton, Calif.). CE conditions were as follows: 75 μm i.d. capillary, 25 KV/80μÅ, 5 s vacuum injections, monitored at 200 nm and 254 nm, the running buffer used was sodium tetraborate (25 mM, pH 9.4). Apparent kinetic parameters were obtained by fitting the experimental data (the average values of duplicate assay results) into the Michaelis-Menten equation using Grafit 5.0.
# [2] = tested on: Photobacterium sp. JH-ISH-224 α2-6-sialyltransferase Psp26ST(15-501)-His6, wild type, SEQ ID NO: 23; settings: apparent, donor CMP-Neu5Ac, cited from earlier work
# [3] = tested on: Photobacterium sp. JH-ISH-224 α2-6-sialyltransferase Psp26ST(15-501)-His6 A366G mutant, SEQ ID NO: 2; experiment: Sialyltransferase kinetics, Psp26ST(15-501)-His6 A366G mutant; assay type: biochemical; settings: apparent, varied CMP-Neu5Ac
# Method: Reactions were carried out in duplicate at 20° C. for 20 minutes in a total volume of 10 μL in a proper buffer at the optimal pH according to the pH profile of the wild-type enzyme (see, Ding, 2011, supra). When LacβMU was used as an acceptor, the conditions were: Tris-HCl buffer (200 mM, pH 8.0), enzyme (0.3 μM), varied concentrations of LacβMU (0.1, 0.25, 0.4, 1.0, 2.0, 4.0, and 6.0 mM) with a fixed concentration of CMP-Neu5Ac (1.0 mM) or varied concentrations of CMP-Neu5Ac (0.1, 0.25, 0.4, 1.0, 2.0, 4.0, and 6.0 mM) with a fixed concentration of LacβMU (1.0 mM). When GalNAcα2AA was used as an acceptor, the conditions were: NaOAc-HOAc buffer (200 mM, pH 5.0), enzyme (6 μM), varied concentrations of GalNAcα2AA (0.5, 0.8, 1.0, 2.0, 4.0, 8.0, and 10.0 mM) and a fixed concentration of CMP-Neu5Ac (4.0 mM) or varied concentrations of CMP-Neu5Ac (0.5, 1.0, 2.0, 4.0, 5.0, 8.0, and 10.0 mM) with a fixed concentration of GalNAcα2AA (1.0 mM). When GalNAcαSer was used as an acceptor, the conditions were: Tris-HCl buffer (200 mM, pH 8.0), enzyme (0.6 μM), varied concentrations of GalNAcαSer (0.1, 0.25, 0.5, 1.0, 2.0, 4.0, 8.0, and 10.0 mM) and a fixed concentration of CMP-Neu5Ac (2.0 mM). When GalNAcαThr was used as an acceptor, the conditions were: Tris-HCl buffer (200 mM, pH 8.0), enzyme (3.0 μM), varied concentrations of GalNAcαThr (0.5, 1.0, 2.0, 4.0, 10.0, 20.0, 40.0, 60.0 mM) and a fixed concentration of CMP-Neu5Ac (4.0 mM). Results analysis was performed using the HPLC system as described above for sialyltransferase activity assays. Apparent kinetic parameters were obtained by fitting the experimental data (the average values of duplicate assay results) into the Michaelis-Menten equation using Grafit 5.0.
# [4] = GalNAcα2AA 1.0 mM, NaOAc-HOAc pH 5.0, 20° C.
# [5] = LacβMU 1.0 mM, Tris-HCl pH 8.0, 20° C.
smiles,measurement,setting,value
"CC(=O)N[C@H]1[C@H]([C@H](O)[C@H](O)CO)O[C@](OP(=O)(O)OC[C@H]2O[C@@H](n3ccc(N)nc3=O)[C@H](O)[C@@H]2O)(C(=O)O)C[C@@H]1O [CMP-Neu5Ac, cytidine 5′-monophosphate N-acetylneuraminic acid]",kcat,[1],(2.9 ± 0.3) × 10^2 min^−1
same,Km,[2]; acceptor GalNAcα2AA,3900 ± 400 µM
same,kcat,[2]; acceptor GalNAcα2AA,0.08 ± 0.0033 s⁻¹
same,Km,[2]; acceptor LacβMU,620 µM
same,kcat,[2]; acceptor LacβMU,(1.4 ± 0.1) × 10^2 min^−1
same,Km,[3]; [4],3300 ± 400 µM
same,kcat,[3]; [4],0.0983 ± 0.0033 s⁻¹
same,Km,[3]; [5],630 µM
same,kcat,[3]; [5],(1.3 ± 0.1) × 10^2 min^−1
